Species on record: Rattus norvegicus
Assay: Inhibition of rat recombinant geranylgeranyltransferase type I expressed in Escherichia coli assessed as residual enzyme activity for geranylgeranylation of K-Ras4B at 50 uM incubated for 30 mins in presence of [3H]GGPP by scintillation counting assay relative to control

| Structure (SMILES) | Activity [%] |
| --- | --- |
| C=CCS[C@@H]1C[C@@H](c2cccc(Cl)c2)N(S(=O)(=O)c2ccc(C)cc2)C[C@H]1C(=O)O | 46.3 |
| Cc1ccc(S(=O)(=O)N2C[C@@H](C(=O)O)[C@H](Sc3ccccc3)C[C@H]2c2ccccc2)cc1 | 49.3 |
| Cc1ccc([C@@H]2CC=C(C(=O)O)[C@H](c3cccc(C)c3)N2S(=O)(=O)c2ccc(Cl)cc2)cc1 | 89.9 |
| COC(=O)c1ccccc1S(=O)(=O)N1[C@@H](c2cccc(Cl)c2)C(C(=O)O)=CC[C@H]1c1ccc(C)cc1 | 56.2 |
| COc1ccc(S[C@@H]2C[C@@H](c3ccc(OC)cc3)N(S(=O)(=O)c3ccc(C)cc3)C[C@H]2C(=O)O)cc1 | 97 |
| Cc1ccc(S(=O)(=O)N2[C@@H](c3cccc(Cl)c3)C(C(=O)O)=CC[C@H]2c2ccc(C#N)cc2)cc1 | 70.9 |
| COc1cc([C@@H]2C[C@@H](SCc3ccc(Cl)cc3)[C@H](C(=O)O)CN2S(=O)(=O)c2ccc(C)cc2)cc(OC)c1OC | 44.9 |
| C=CCS[C@@H]1C[C@@H](c2ccc3c(c2)OCO3)N(S(=O)(=O)c2ccc(C)cc2)C[C@H]1C(=O)O | 76.4 |
| Cc1ccc(S(=O)(=O)N2[C@@H](c3cccc(C)c3)C(C(=O)O)=CC[C@H]2c2ccccc2F)cc1 | 62.8 |
| CCS[C@@H]1C[C@@H](c2ccc(Cl)cc2)N(S(=O)(=O)c2ccc(C)cc2)C[C@H]1C(=O)O | 87.8 |
| Cc1ccc(S(=O)(=O)N2[C@@H](c3ccc(C(C)(C)C)cc3)C(C(=O)O)=CC[C@H]2c2ccccc2)cc1 | 75.2 |
| Cc1ccc(S(=O)(=O)N2[C@@H](c3ccc(Cl)cc3)C(C(=O)O)=CC[C@H]2c2ccc3c(c2)OCO3)cc1 | 73.4 |
| COc1ccc([C@@H]2CC=C(C(=O)O)[C@H](c3ccc(Br)cc3)N2S(=O)(=O)c2ccc(Cl)cc2)cc1 | 76.2 |
| CCCCCS[C@@H]1C[C@@H](c2ccccc2F)N(S(=O)(=O)c2ccc(C)cc2)C[C@H]1C(=O)O | 61.4 |
| COc1ccc([C@@H]2CC=C(C(=O)O)[C@H](c3ccc(C)cc3)N2S(=O)(=O)c2ccc(Cl)cc2)cc1 | 72.5 |
| CS(=O)(=O)N1[C@@H](c2ccc(F)cc2)C(C(=O)O)=CC[C@H]1c1ccc(Cl)cc1 | 50.2 |
| CCOc1ccc([C@@H]2CC=C(C(=O)O)[C@H](c3cccc(C)c3)N2S(=O)(=O)c2ccc(C)cc2)cc1 | 65.3 |
| C=CCS[C@@H]1C[C@@H](c2ccc(OC)cc2)N(S(=O)(=O)c2ccc(Cl)cc2)C[C@H]1C(=O)O | 95.4 |
| COc1ccc([C@@H]2C[C@@H](Sc3ccc(C)cc3)[C@H](C(=O)O)CN2S(=O)(=O)c2ccccc2)cc1 | 84.8 |

| Structure (SMILES) | Activity [%] |
| --- | --- |
| COc1cccc([C@@H]2CC=C(C(=O)O)[C@H](c3ccc(F)cc3)N2S(=O)(=O)c2ccc(C)cc2)c1 | 65 |
| Cc1ccc([C@@H]2C[C@@H](Sc3ccccc3)[C@H](C(=O)O)CN2S(=O)(=O)c2ccc(Cl)cc2)cc1 | 87.1 |
| CCc1ccc([C@@H]2C[C@@H](Sc3ccc(OC)cc3)[C@H](C(=O)O)CN2S(=O)(=O)c2ccc(C)cc2)cc1 | 90.8 |
| Cc1ccc(S[C@@H]2C[C@@H](c3ccc(C)cc3)N(S(=O)(=O)c3ccccc3)C[C@H]2C(=O)O)cc1 | 91.3 |
| Cc1ccccc1S(=O)(=O)N1C[C@@H](C(=O)O)[C@H](SC2CCCC2)C[C@H]1c1ccc(Cl)cc1 | 92.1 |
| COc1ccc([C@@H]2CC=C(C(=O)O)[C@H](c3ccc(Cl)cc3)N2S(=O)(=O)c2ccc(Cl)cc2)cc1 | 72.6 |
| Cc1ccc(S(=O)(=O)N2[C@@H](c3ccc(F)cc3)C(C(=O)O)=CC[C@H]2c2cccs2)cc1 | 62.3 |
| COc1ccc([C@@H]2CC=C(C(=O)O)[C@H](c3ccc(C(C)(C)C)cc3)N2S(=O)(=O)c2ccccc2C)cc1 | 70.7 |
| CCCCS[C@@H]1C[C@@H](c2ccc(C)cc2)N(S(=O)(=O)c2ccc(Cl)cc2)C[C@H]1C(=O)O | 49.2 |
| Cc1ccc(S(=O)(=O)N2C[C@@H](C(=O)O)[C@H](SCc3ccc(Cl)cc3)C[C@H]2c2ccc3c(c2)OCO3)cc1 | 37.4 |
| CCc1ccc([C@@H]2CC=C(C(=O)O)[C@H](c3cccc(Br)c3)N2S(=O)(=O)c2ccc(C)cc2)cc1 | 75.4 |
| COc1ccc([C@@H]2CC=C(C(C)=O)CN2S(=O)(=O)c2ccccc2)cc1 | 110 |
| Cc1ccc(S(=O)(=O)N2C[C@@H](C(=O)O)[C@H](SCCC(C)C)C[C@H]2c2ccccc2F)cc1 | 58.4 |
| Cc1ccc([C@@H]2CC=C(C(=O)O)[C@H](c3ccc(Br)cc3)N2S(C)(=O)=O)cc1 | 84.5 |
| Cc1ccc([C@@H]2C[C@@H](Sc3ccccc3)[C@H](C(=O)O)CN2S(=O)(=O)c2ccccc2)cc1 | 92 |
| COc1ccc([C@@H]2CC=C(C(=O)O)[C@H](c3ccc(C(C)(C)C)cc3)N2S(=O)(=O)c2ccc(C)cc2)cc1 | 91.1 |
| COc1ccc([C@@H]2C[C@@H](SCc3ccccc3)[C@H](C(=O)O)CN2S(=O)(=O)c2ccccc2C)cc1 | 33.9 |
| Cc1ccc(S(=O)(=O)N2[C@@H](c3ccc(Cl)cc3)C(C(=O)O)=CC[C@H]2c2cccs2)cc1 | 75.6 |
| CCCCCCS[C@@H]1C[C@@H](c2ccc(OC)cc2)N(S(=O)(=O)c2ccc(C)cc2)C[C@H]1C(=O)O | 83.6 |

| Structure (SMILES) | Activity [%] |
| --- | --- |
| Cc1ccc([C@@H]2CC=C(C(=O)O)[C@H](c3cccc(Cl)c3)N2S(=O)(=O)c2ccc(Cl)cc2)cc1 | 8.4 to 60 |
| Cc1ccc(S[C@@H]2C[C@@H](c3ccccc3)N(S(=O)(=O)c3ccc(C)cc3)C[C@H]2C(=O)O)cc1 | 98 |
| CS(=O)(=O)N1[C@@H](c2cccc(Cl)c2)C(C(=O)O)=CC[C@H]1c1ccccc1 | 72.4 |
| CCCCCS[C@@H]1C[C@@H](c2ccc(OCC)cc2)N(S(=O)(=O)c2ccc(C)cc2)C[C@H]1C(=O)O | 89.1 |
| CC(=O)C1=CC[C@@H](c2cccs2)N(S(=O)(=O)c2ccc(C)cc2)C1 | 90.3 |
| COc1ccc(S[C@@H]2C[C@@H](c3ccc(C)cc3)N(S(C)(=O)=O)C[C@H]2C(=O)O)cc1 | 99 |
| COc1ccc([C@@H]2CC=C(C(=O)O)[C@H](c3ccc(F)cc3)N2S(=O)(=O)c2ccccc2)cc1 | 67.7 |
| Cc1ccc(S(=O)(=O)N2[C@@H](c3ccc(Br)cc3)C(C(=O)O)=CC[C@H]2c2ccc(F)cc2)cc1 | 62.6 |
| Cc1ccc(S(=O)(=O)N2C[C@@H](C(=O)O)[C@H](SC3CCCC3)C[C@H]2c2cccc(Br)c2)cc1 | 72.1 |
| COc1cccc([C@@H]2CC=C(C(=O)O)[C@H](c3ccc(Br)cc3)N2S(=O)(=O)c2ccc(C)cc2)c1 | 65.8 |
| COc1ccc([C@@H]2C[C@@H](Sc3ccc(Cl)cc3)[C@H](C(=O)O)CN2S(=O)(=O)c2ccc(C)cc2)cc1OC | 107 |
| Cc1ccccc1S(=O)(=O)N1[C@@H](c2ccc(Cl)cc2)C(C(=O)O)=CC[C@H]1c1ccc(Cl)cc1 | 54.4 |
| Cc1ccc([C@@H]2C[C@@H](Sc3ccccc3)[C@H](C(=O)O)CN2S(C)(=O)=O)cc1 | 99.6 |
| CCc1ccc([C@@H]2CC=C(C(=O)O)[C@H](c3cccc(Cl)c3)N2S(=O)(=O)c2ccc(C)cc2)cc1 | 73.6 |
| Cc1ccc(S(=O)(=O)N2[C@@H](c3ccc(F)cc3)C(C(=O)O)=CC[C@H]2c2ccc(C#N)cc2)cc1 | 65.1 |
| Cc1ccc([C@H]2C(C(=O)O)=CC[C@@H](c3ccccc3F)N2S(=O)(=O)c2ccc(C)cc2)cc1 | 92.9 |
| COc1ccc(S[C@@H]2C[C@@H](c3cccc(Br)c3)N(S(=O)(=O)c3ccc(C)cc3)C[C@H]2C(=O)O)cc1 | 81.4 |
| CCCCCS[C@@H]1C[C@@H](c2ccc(CC)cc2)N(S(=O)(=O)c2ccc(C)cc2)C[C@H]1C(=O)O | 65.8 |
